Measurements from patent US8669072B2, “Oxadiazoline ligands for modulating the expression of exogenous genes via an ecdysone receptor complex” (Intrexon Corporation, priority 2003, dated 2014).
Where two headings read alike, the source gives them in different places.

Legend:
[1] = target: T1, GAL4 DBD-CfEcR(DEF)/VP16AD-MmRXRE (Choristoneura fumiferana, UniProt O77240); experiment: 13B3 assay: luciferase reporter gene induction in stable CHO clone 13B3; assay type: cell-based; settings: for Fold Induction Average, 13B3 assay / fold induction at 33.3 µM: 48 h; for fold induction at 33.3 µM: read-out: Fold Induction Average, 13B3 assay
T1 construct: The wild-type D, E, and F domains from spruce budworm Choristoneura fumiferana EcR (“CfEcR-DEF”)
In short: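 Stable CHO clone 13B3 co-expressing GAL4 DBD-CfEcR(DEF) and VP16AD-MmRXRE with a GAL4 RE-luciferase reporter; ligands from DMSO stocks diluted 300-fold. Luciferase read by luminescence 48 h after treatment, duplicate wells averaged. Fold induction = RLU treated/RLU DMSO; EC50 from three-parameter logistic fit.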

Bombyx mori EcR (VBE) = target: T2, Bombyx mori EcR (VBE) (Bombyx mori, UniProt P49881); experiment: Z3 assay: β-galactosidase reporter gene induction in HEK-293 clone Z3 (CVBE / 6XEcRE LacZ); assay type: cell-based; settings: for fold induction at 33 µM: read-out: Fold Induction Average, Z3 assay
T2 construct: expressed in transfected cells; host or cells: Human HEK-293 cells, retrovirally infected, clone Z3
T2 sequence (P49881 86-606 limits assumed): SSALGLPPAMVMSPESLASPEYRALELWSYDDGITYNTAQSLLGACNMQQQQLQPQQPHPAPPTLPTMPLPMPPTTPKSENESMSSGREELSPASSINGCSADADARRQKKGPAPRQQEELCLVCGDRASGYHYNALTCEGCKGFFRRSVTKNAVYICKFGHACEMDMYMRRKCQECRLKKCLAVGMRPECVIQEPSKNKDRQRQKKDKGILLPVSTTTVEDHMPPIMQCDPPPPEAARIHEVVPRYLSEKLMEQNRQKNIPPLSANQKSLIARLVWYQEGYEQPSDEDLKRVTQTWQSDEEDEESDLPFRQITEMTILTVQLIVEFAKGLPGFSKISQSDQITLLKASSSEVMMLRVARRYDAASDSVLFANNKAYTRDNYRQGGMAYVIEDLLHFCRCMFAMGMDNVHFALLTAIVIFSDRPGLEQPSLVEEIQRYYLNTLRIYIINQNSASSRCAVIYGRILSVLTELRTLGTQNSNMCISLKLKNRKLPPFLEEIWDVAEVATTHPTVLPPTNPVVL
T2 sequence (P19793 1-462 partner): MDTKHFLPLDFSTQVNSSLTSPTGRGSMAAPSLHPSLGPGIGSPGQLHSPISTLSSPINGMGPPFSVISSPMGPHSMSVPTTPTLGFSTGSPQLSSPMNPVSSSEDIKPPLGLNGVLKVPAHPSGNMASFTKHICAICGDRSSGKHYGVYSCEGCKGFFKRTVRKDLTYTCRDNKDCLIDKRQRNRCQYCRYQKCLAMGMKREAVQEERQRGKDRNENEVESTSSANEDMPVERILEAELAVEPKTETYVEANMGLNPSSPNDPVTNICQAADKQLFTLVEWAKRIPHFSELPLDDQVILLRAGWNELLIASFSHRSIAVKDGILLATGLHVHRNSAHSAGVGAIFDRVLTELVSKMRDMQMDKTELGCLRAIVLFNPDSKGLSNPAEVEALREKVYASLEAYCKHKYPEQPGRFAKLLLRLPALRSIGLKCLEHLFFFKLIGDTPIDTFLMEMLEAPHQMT

[2] = tested on: MTA (two-spotted spider mite); experiment: Insect toxicity contact bioassay, MTA; assay type: in vivo
Experimental: (§1) The compound to be evaluated was dissolved in an appropriate solvent, usually a mix of acetone, methanol, and water. Test solutions were made by serial dilution of a stock test solution with acetone, methanol, and water. Initial evaluations were made at one or more concentrations on one or more of the following insects:
(§2) Contact bioassays (green peach aphid, two-spotted spider mite, white fly) were conducted by applying a solution of the test compound to the inside surface of a Petri dish. The solution was allowed to air-dry, then each dish was infested and the larvae from each treatment were transferred to a bioassay tray. The trays were held for one to seven days, and the mortality rating was determined for each treatment.

Beet Armyworm = experiment: Insect toxicity feeding bioassay, BAW; assay type: in vivo
Experimental: as §1
(§3) Feeding bioassays were conducted in bioassay trays containing insect diet. Treatments were made by applying 50 μL of test solution to the surface of the diet in each of 5 wells. After the test solution dried, each well was infested with a single neonate larva. The trays were held for six days and then the mortality rating was determined for each treatment.

Cabbage Looper = experiment: Insect toxicity feeding bioassay, CL; assay type: in vivo
Experimental: as §1, §3

Tobacco Budworm = experiment: Insect toxicity bioassay, TBW; assay type: in vivo
Experimental: as §1, §3
Some of the tobacco budworm tests were conducted as follows. A test solution containing 600 ppm was made by dissolving a compound of the invention in a 1:1 acetone:methanol solution, then adding water to give a 5:5:90 acetone:methanol:water solution, and finally a surfactant was added at an equivalent of 7.37 g of surfactant per 100 L of test solution (1 ounce of surfactant per 100 gallons of test solution). Appropriate dilutions were prepared in water from the 600 ppm solution. A detached cotton leaf, Gossypium hirsutum was placed on moistened filter paper in a Petri dish (100×20 mms). The leaf was sprayed with the test solution using a rotating turntable sprayer and allowed to dry. The dish was infested with 10 first instar larvae of the tobacco budworm and covered with the lid. If the larvae were alive two days after treatment, fresh untreated cotton leaves were added. All treatments were maintained at 23.9-26.7° C. (75-80° F.) under fluorescent light in a well-ventilated room. Percent mortality was determined at four days after treatment.

WFN (white fly) = experiment: Insect toxicity contact bioassay, WFN; assay type: in vivo
Experimental: as §1, §2

[3] = target: T3, GAL4 DBD (1-147)-CfEcR(DEF)/VP16AD-βRXREF-LmUSPEF (Choristoneura fumiferana, UniProt O77240); experiment: cell-based; settings: for fold induction at 33.3 µM: 48 h, read-out: Fold Induction Average, 27-63 assay; for Rel Max FI, 27-63 assay: maximum fold induction relative to that of GS-E ligand
T3 construct: The wild-type D, E, and F domains from spruce budworm Choristoneura fumiferana EcR (“CfEcR-DEF”)
Experimental: Stably transfected cells were selected by Zeocin resistance. Individually isolated CHO cell clones were transiently transfected with a GAL4 RE-luciferase reporter (pFR Luc). 27-63 clone was selected using Hygromycin.
Cells were trypsinized and diluted to a concentration of 2.5×10^4 cells mL. 100 μL of cell suspension was placed in each well of a 96 well plate and incubated at 37° C. under 5% CO2 for 24 h. Ligand stock solutions were prepared in DMSO and diluted 300 fold for all treatments.
Luciferase reporter gene expression was measured 48 h after cell treatment using Bright-Glo™ Luciferase Assay System from Promega (E2650). Luminescence was detected at room temperature using a Dynex MLX microtiter plate luminometer.
Each assay was conducted in two separate wells, and the two values were averaged. Fold inductions were calculated by dividing relative light units (“RLU”) in ligand treated cells with RLU in DMSO treated cells. EC50s were calculated from dose response data using a three-parameter logistic model.

[4] = target: CfEcR (CDEF)/CfUSP, GST fusion protein (Choristoneura fumiferana, UniProt O77240); experiment: CfEcR (CDEF)/CfUSP GST fusion protein assay; assay type: binding; settings: GST fusion protein; read-out: CfEcR EC50
Sequence of CfEcR (CDEF)/CfUSP, GST fusion protein (O77240 entry or part of it): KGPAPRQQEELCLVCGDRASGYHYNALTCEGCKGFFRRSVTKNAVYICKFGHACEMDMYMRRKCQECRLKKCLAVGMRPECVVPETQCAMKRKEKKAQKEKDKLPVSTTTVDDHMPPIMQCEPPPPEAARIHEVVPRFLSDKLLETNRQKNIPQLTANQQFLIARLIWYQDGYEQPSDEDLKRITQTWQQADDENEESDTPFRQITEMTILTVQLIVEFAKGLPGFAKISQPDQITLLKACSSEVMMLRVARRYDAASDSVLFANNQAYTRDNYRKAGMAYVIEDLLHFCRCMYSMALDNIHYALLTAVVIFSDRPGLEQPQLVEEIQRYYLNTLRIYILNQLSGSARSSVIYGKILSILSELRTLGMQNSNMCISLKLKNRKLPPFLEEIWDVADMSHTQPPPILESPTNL
Sequence of CfEcR (CDEF)/CfUSP, GST fusion protein (O76202 whole entry, further chain, the tested form may be a part): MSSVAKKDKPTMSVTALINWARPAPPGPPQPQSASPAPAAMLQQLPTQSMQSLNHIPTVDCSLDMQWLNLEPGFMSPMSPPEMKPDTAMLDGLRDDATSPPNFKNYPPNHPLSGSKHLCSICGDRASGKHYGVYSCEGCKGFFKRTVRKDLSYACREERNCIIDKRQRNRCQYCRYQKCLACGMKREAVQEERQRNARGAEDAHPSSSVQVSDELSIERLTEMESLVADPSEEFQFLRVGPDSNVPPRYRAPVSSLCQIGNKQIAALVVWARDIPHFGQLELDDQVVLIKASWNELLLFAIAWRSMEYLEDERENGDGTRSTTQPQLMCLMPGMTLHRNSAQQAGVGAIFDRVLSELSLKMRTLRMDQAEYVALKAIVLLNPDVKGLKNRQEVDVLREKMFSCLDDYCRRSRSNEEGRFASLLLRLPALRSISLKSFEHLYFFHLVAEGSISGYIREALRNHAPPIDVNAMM

[5] = 33/33.3 μM ligand, RLU relative to DMSO
[6] = 33 μM ligand, 48 h, RLU relative to DMSO
[7] = maximum fold induction relative to that of GS-E ligand
[8] = HEK293, 33 μM ligand, 48 h, RLU relative to DMSO

SMILES | Fold Induction Average, Z3 assay (Bombyx mori EcR (VBE); [6]) | Insect Toxicity % control @ 150 ppm, MTA [2] | Insect Toxicity % control @ 150 ppm, BAW (Beet Armyworm) [% @ 150] | Insect Toxicity % control @ 150 ppm, CL (Cabbage Looper) [% @ 150] | Insect Toxicity % control @ 150 ppm, TBW (Tobacco Budworm) [% @ 150] | Insect Toxicity % control @ 150 ppm, WFN (WFN (white fly)) [% @ 150] | EC50 [3] [µM] | fold induction at 33.3 µM [3] | Rel Max FI, 27-63 assay [3] | fold induction at 33 µM (Bombyx mori EcR (VBE); HEK293, 48 h) | also measured
CC1(C)ON=C(c2cccc(C(F)(F)F)c2)N1NC(=O)Nc1ccccc1 [RG-120001] | 0.3 | 0% @ 150 | 80 | 20 | 0 | 0 |  |  |  |  | Fold Induction Average, 13B3 assay [1, 5]: 3.3
CC1(C)ON=C(c2cccc(C(F)(F)F)c2)N1NC(=O)c1ccccc1 [RG-120015] | 0.8 | 0% @ 150 | 80 | 0 | 0 | 0 |  |  |  |  | 
CC1(C)ON=C(c2cccc(C(F)(F)F)c2)N1NC(=O)Cc1ccccc1 [RG-120021] | 0.7 | 51% @ 150 | 100 | 0 | 0 | 0 |  |  |  |  | 
CCc1ccc(C(=O)NN2C(c3ccccc3OC)=NOC2(C)C)cc1 [RG-120026] |  | 40% @ 150 | 100 | 0 | 0 | 0 | > 33 | 8.5 | 0 | 41.1 | fold induction at 33.3 µM [1]: 0.9
CCc1ccc(C(=O)NN2C(c3ccc(Cl)cc3)=NOC2(C)C)cc1 [RG-120035] |  | 0% @ 150 | 40 | 100 | 0 | 0 |  |  |  | 9.1 | fold induction at 33.3 µM [1]: 1.2
CCC1(C)ON=C(c2cc(C)cc(C)c2)N1NC(=O)c1ccccc1 (stereo not shown) [RG-120039] |  |  |  |  |  |  |  |  |  |  | EC50 [4]: 0.203 µM
Cc1cccc(C(=O)NN2C(c3cc(C)cc(C)c3)=NOC2(C)C)c1 [RG-120077] | 14.6 | 0% @ 150 | 50 | 100 | 0 | 0 |  |  |  |  | Fold Induction Average, 13B3 assay [1, 5]: 0.4
CCc1c(OC)cccc1C(=O)NN1C(c2ccccc2)=NOC12CCCC2 [RG-120092] |  |  |  |  |  |  | 7.16 | 2190 | 1.15 |  | Insect Toxicity LC50, MTA ([2]; in vivo): >150 ppm; Insect Toxicity LC50, BAW (Beet Armyworm; in vivo): 47 ppm; Insect Toxicity LC50, CL (Cabbage Looper; in vivo): 13 ppm; Insect Toxicity LC50, TBW (Tobacco Budworm; in vivo): 98 ppm; Insect Toxicity LC50, WFN (WFN (white fly); in vivo): >150 ppm
COc1ccc(C2=NOC(C)(C)N2NC(=O)c2ccccc2)c(OC)c1 [RG-120096] |  | 74 @ 150% | 0 | 60 | 0 | 55 |  |  |  | 0.7 | EC50 [1]: > 33.3 µM; fold induction at 33.3 µM [1]: 0.2; Rel Max FI, 13B3 assay [1, 7]: 0; EC50 (Bombyx mori EcR (VBE)): > 50 µM; Rel Max FI, Z3 assay (Bombyx mori EcR (VBE); [7]): 0
CCc1c(OC)cccc1C(=O)NN1C(c2ccc(Cl)cc2)=NOC1(C)C [RG-120099] |  | 0% @ 150 | 100 | 40 | 0 | 0 | ~20 | 1330 | 0.64 | 0.2 | 
CCc1ccc(C(=O)NN2C(c3ccccc3)=NOC2(C)CC)cc1 (stereo not shown) [RG-120137] |  |  |  |  |  |  | > 33 | 4.6 | 0 |  | fold induction at 33.3 µM [1, 5]: 5.3; fold induction at 33 µM (Bombyx mori EcR (VBE); [8]): 59
CCc1c(OC)cccc1C(=O)NN1C(c2ccccc2)=NOC12CCOCC2 [RG-120159] |  |  |  |  |  |  | > 33 | 3.7 | 0 |  | fold induction at 33.3 µM [1, 5]: 0.1; fold induction at 33 µM (Bombyx mori EcR (VBE); [8]): 0.2
